Laboratory results published in patent publication US20230125482A1, “PROTEIN KINASE C MODULATORS” (Young Therapeutics, LLC, priority 2020, published 2023).
Where a SMILES comes first, the peptide text is derived from it. The star is where a group is joined. Myristoyl = CCCCCCCCCCCCCC(=O)*

How the values were obtained:
Solubility of peptide = format: physicochemical
isolated rat hearts = test: Myocardial ischemia/reperfusion (I/R) injury in isolated rat hearts (Langendorff, ex vivo); conditions: for Final Coronary Flow / Final Heart Rate / Final LVDP / Final LVEDP / Final LVESP / Final dP/dtmax / Final dP/dtmin: 50 min post-reperfusion; for Infarct Size: I(30 min)/R(50 min), infarct tissue weight/total tissue weight; for Initial Coronary Flow / Initial Heart Rate / Initial LVDP / Initial LVEDP / Initial LVESP / Initial dP/dtmax / Initial dP/dtmin: baseline before ischemia
Protocol: Rat hearts were isolated from anesthetized male Sprague Dawley rats (275-325 g), placed in ice-cold Krebs' buffer, and placed onto a Langendorff heart apparatus and retro perfused with Krebs' buffer at a constant pressure of 80 mmHg (FIG. 1). A pressure transducer measures heart rate, left ventricular end-systolic pressure, end-diastolic pressure, dP/dt max, and dP/dt min. Coronary flow is measured via a flow probe connected to the perfusion tubing. Cardiac function was recorded throughout the experimental protocol using a pressure transducer inserted into the left ventricle (15 min baseline; global I(30 min)/R(50 min)). Selected peptides of TABLE 1 or vehicle (control [0.05 to 0.2% Dimethylsulfoxide) were given during the first 5 min of reperfusion. All peptide inhibitors or activators were dissolved in 28% DMSO and the final concentration of DMSO with peptides or without peptides (control I/R hearts) delivered to all hearts was 0.06%. Statistical analysis was performed using ANOVA and Bonferroni-Dunn post-hoc test.
At the end of the experimental protocol, hearts were removed from the Langendorff apparatus, and frozen for 30 min at −20° C. Hearts were sectioned (2 mm) from base to apex and placed in 1% TTC for ˜10 min at 37° C. Viable tissue stained red and infarcted tissue was unstained (pale). Total tissue sections were weighed and infarcted tissue was separated from viable tissue and weighed to determine infarct size (i.e. infarct tissue weight/total tissue weight).

## CCCCCCCCCCCCCC(=O)N[C@@H](Cc1ccc(O)cc1)C(=O)NCC(=O)N[C@@H](CCCNC(=N)N)C(=O)N[C@@H](CCCCN)C(=O)N[C@@H](CCCCN)C(=O)N[C@@H](CCCNC(=N)N)C(=O)N[C@@H](CCCNC(=N)N)C(=O)N[C@@H](CCC(N)=O)C(=O)N[C@@H](CCCNC(=N)N)C(=O)N[C@@H](CCCNC(=N)N)C(=O)N[C@@H](CCCNC(=N)N)C(=O)N[C@@H](CS)C(=O)N[C@@H](CS)C(=O)N[C@@H](CCC(=O)O)C(=O)N[C@@H](C)C(=O)N[C@H](C(=O)N[C@@H](CO)C(=O)N[C@@H](CC(C)C)C(=O)N[C@@H](CCCCN)C(=O)N1CCC[C@H]1C(=O)N[C@H](C(=O)O)[C@@H](C)O)C(C)C [Myr + TAT + PKCε-] (Myristoyl-YGRKKRRQRRRCCEAVSLKPT-OH; C-terminus assumed)
Solubility of peptide
  solubility: ≤ 100 mM
Isolated rat hearts; 100 pM
  Final Coronary Flow: 10 ± 1 mL/min
  Final Heart Rate: 252 ± 8 BPM
  Final LVDP: 47 ± 11 mmHg
  Final LVEDP: 47 ± 10 mmHg
  Final LVESP: 94 ± 14 mmHg
  Final dP/dtmax: 1021 ± 246 mmHg/s
  Final dP/dtmin: −688 ± 142 mmHg/s
  Infarct Size: 18 ± 1%
  Initial Coronary Flow: 18 ± 2 mL/min
  Initial Heart Rate: 285 ± 6 BPM
  Initial LVDP: 89 ± 3 mmHg
  Initial LVEDP: 10 ± 0.4 mmHg
  Initial LVESP: 100 ± 3 mmHg
  Initial dP/dtmax: 2457 ± 37 mmHg/s
  Initial dP/dtmin: −1726 ± 49 mmHg/s
Isolated rat hearts; 1 nM
  Final Coronary Flow: 10 ± 1 mL/min
  Final Heart Rate: 266 ± 6 BPM
  Final LVDP: 49 ± 8 mmHg
  Final LVEDP: 52 ± 9 mmHg
  Final LVESP: 101 ± 9 mmHg
  Final dP/dtmax: 1147 ± 156 mmHg/s
  Final dP/dtmin: −733 ± 68 mmHg/s
  Infarct Size: 10 ± 2 %
  Initial Coronary Flow: 18 ± 1 mL/min
  Initial Heart Rate: 293 ± 13 BPM
  Initial LVDP: 91 ± 4 mmHg
  Initial LVEDP: 10 ± 1 mmHg
  Initial LVESP: 101 ± 5 mmHg
  Initial dP/dtmax: 2440 ± 72 mmHg/s
  Initial dP/dtmin: −1674 ± 106 mmHg/s
Isolated rat hearts; 30 nM
  Final Coronary Flow: 9 ± 1 mL/min
  Final Heart Rate: 261 ± 11 BPM
  Final LVDP: 48 ± 10 mmHg
  Final LVEDP: 50 ± 15 mmHg
  Final LVESP: 108 ± 3 mmHg
  Final dP/dtmax: 1059 ± 336 mmHg/s
  Final dP/dtmin: −733 ± 99 mmHg/s
  Infarct Size: 14 ± 2%
  Initial Coronary Flow: 16 ± 1 mL/min
  Initial Heart Rate: 271 ± 7 BPM
  Initial LVDP: 88 ± 2 mmHg
  Initial LVEDP: 11 ± 1 mmHg
  Initial LVESP: 99 ± 2 mmHg
  Initial dP/dtmax: 2344 ± 22 mmHg/s
  Initial dP/dtmin: −1588 ± 18 mmHg/s
Isolated rat hearts; 100 nM given at the beginning of reperfusion for 5 minutes, 25 to 50 min
  restoration of post-reperfused cardiac function compared to control I/R hearts: significantly restored post-reperfused cardiac function
Isolated rat hearts; 100 nM
  Final Coronary Flow: 11 ± 2 mL/min
  Final Heart Rate: 254 ± 12 BPM
  Final LVDP: 66 ± 6 mmHg
  Final LVEDP: 48 ± 13 mmHg
  Final LVESP: 114 ± 11 mmHg
  Final dP/dtmin: −981 ± 135 mmHg/s
  Infarct Size: 8 ± 2 %
  Initial Coronary Flow: 20 ± 2 mL/min
  Initial Heart Rate: 301 ± 10 BPM
  Initial LVDP: 89 ± 4 mmHg
  Initial LVEDP: 9 ± 1 mmHg
  Initial LVESP: 98 ± 3 mmHg
  Initial dP/dtmax: 2528 ± 133 mmHg/s
  Initial dP/dtmin: −1807 ± 125 mmHg/s
Isolated rat hearts; 1 μM
  Final Coronary Flow: 10 ± 3 mL/min
  Final Heart Rate: 296 ± 86 BPM
  Final LVDP: 40 ± 15 mmHg
  Final LVEDP: 60 ± 12 mmHg
  Final LVESP: 101 ± 6 mmHg
  Final dP/dtmax: 794 ± 220 mmHg/s
  Final dP/dtmin: −616 ± 122 mmHg/s
  Infarct Size: 5 ± 2 %
  Initial Coronary Flow: 21 ± 1 mL/min
  Initial Heart Rate: 274 ± 15 BPM
  Initial LVDP: 94 ± 5 mmHg
  Initial LVEDP: 10 ± 2 mmHg
  Initial LVESP: 104 ± 6 mmHg
  Initial dP/dtmax: 2493 ± 128 mmHg/s
  Initial dP/dtmin: −1786 ± 97 mmHg/s
Isolated rat hearts; 10 μM
  cardio depressive effect on post-reperfused cardiac function compared to all other groups: most cardio depressive effect
  reduction of infarct size compared to control I/R hearts: reduced infarct size
  stunning concentration relative to the concentration needed to produce a 50% reduction in infarct size: 10,000 times
  stunning of the heart during reperfusion: caused stunning
  Final Coronary Flow: 0 mL/min
  Final Heart Rate: 811 ± 79 BPM
  Final LVDP: 1 ± 0.2 mmHg
  Final LVEDP: 68 ± 17 mmHg
  Final LVESP: 69 ± 17 mmHg
  Final dP/dtmax: 54 ± 14 mmHg/s
  Final dP/dtmin: −56 ± 14 mmHg/s
  Infarct Size: 5 ± 2 %
  Initial Coronary Flow: 18 ± 2 mL/min
  Initial Heart Rate: 285 ± 24 BPM
  Initial LVDP: 92 ± 3 mmHg
  Initial LVEDP: 8 ± 2 mmHg
  Initial LVESP: 101 ± 4 mmHg
  Initial dP/dtmax: 2540 ± 158 mmHg/s
  Initial dP/dtmin: −1772 ± 141 mmHg/s
Isolated rat hearts; 10 μM and 1 μM
  effect on reducing infarct size: most robust effect on reducing infarct size
Isolated rat hearts; ex vivo rat I/R hearts
  minimum effective concentration, tissue-salvaging effects (infarct size): 1 nM
Isolated rat hearts; infarct size, FIG. 3
  decrease in minimum effective concentration (increase in potency to reduce infarct size) as compared to Myr+PKCε−: 10,000 ×
